Here are results for eight compounds from ChEMBL document CHEMBL5260828, “Amphiphilic glycoconjugates as potential anti-cancer chemotherapeutics” (Eur J Med Chem, 2018).

For test [1], the system named is HeLa. In words: Cytotoxicity against human HeLa cells assessed as reduction of cell viability incubated for 48 hrs by MTT assay. It is filed as functional, cell-based.
In test [2] the test system is Lung NSCLC-N6 cell-line. In words: Cytotoxicity against human Lung NSCLC-N6 cell-line by MTT colorimetric assay. It is filed as functional, cell-based.
For test [3], the system named is P388. Description: Cytotoxicity against mouse P388 cells by MTT colorimetric assay. The format is functional, cell-based.
Test [4] relates to A2780. Description: Cytotoxicity against human A2780 cells incubated for 48 hrs. The format is functional, cell-based. To be noted: A2780, 48 h.
For test [5], the system named is Jurkat. In words: Cytotoxicity against human Jurkat cells incubated for 16 hrs by MTS colorimetric assay. It is filed as functional, cell-based.
Test [6] concerns A549. In words: Antiproliferative activity against human A549 cells assessed as inhibition of cell proliferation incubated for 48 hrs by SRB assay. To be noted: A549, 48 h. It is filed as functional, cell-based.
For test [7], the system named is HBL-100. In words: Antiproliferative activity against human HBL-100 cells assessed as inhibition of cell proliferation incubated for 48 hrs by SRB assay. It is filed as functional, cell-based. Particulars: HBL-100, 48 h.
For test [8], the system named is HeLa. In words: Antiproliferative activity against human HeLa cells assessed as inhibition of cell proliferation incubated for 48 hrs by SRB assay. The format is functional, cell-based.
Test [9] deals with SW1573. Description: Antiproliferative activity against human SW1573 cells assessed as inhibition of cell proliferation incubated for 48 hrs by SRB assay. Particulars: SW1573, 48 h. It is filed as functional, cell-based.
For test [10], the system named is T47D. Description: Antiproliferative activity against human T47D cells assessed as inhibition of cell proliferation incubated for 48 hrs by SRB assay. It is filed as functional, cell-based.
The test system of test [11] is WiDr. Description: Antiproliferative activity against human WiDr cells assessed as inhibition of cell proliferation incubated for 48 hrs by SRB assay. The format is functional, cell-based.
The test system of test [12] is HFF. In words: Cytotoxicity against human HFF cells. It is filed as functional, cell-based.
Test [13] relates to MRC5. Description: Cytotoxicity against human MRC5 cells. It is filed as functional, cell-based.
The subject of test [14] is SW480. Description: Cytotoxicity against human SW480 cells. The format is functional, cell-based.
The test system of test [15] is HT-29. In words: Cytotoxicity against human HT-29 cells. It is filed as functional, cell-based.
Test [16] deals with SAOS-2. In words: Cytotoxicity against human SAOS-2 cells. It is filed as functional, cell-based.
Test [17] concerns DLD-1. Description: Cytotoxicity against human DLD-1 cells. The format is functional, cell-based.
Test [18] concerns NCI-H460. Description: Cytotoxicity against human NCI-H460 cells. The format is functional, cell-based.
Test [19] deals with MCF7. Description: Antiproliferative activity against human MCF7 cells assessed as inhibition of cell proliferation incubated for 24 hrs by trypan blue assay. It is filed as functional, cell-based. Particulars: MCF7, 24 h.
Test [20] concerns HL-60. In words: Induction of apoptosis in human HL-60 cells at 5 uM incubated for 24 hrs by Annexin V-FITC/PI based flow cytometric analysis. It is filed as functional.
Test [21] relates to HL-60. In words: Cytotoxicity against human HL-60 cells assessed as inhibition of cell growth incubated for 22 hrs by MTS spectrophotometric assay. The format is functional, cell-based. To be noted: HL-60, 22 h.
Test [22] concerns THP-1. Description: Cytotoxicity against human THP-1 cells assessed as inhibition of cell growth incubated for 22 hrs by MTS spectrophotometric assay. The format is functional, cell-based. To be noted: THP-1, 22 h.

In brackets after ≈: the same amount, converted by molar mass.

For `CCCCCCCCCCCCCCCC(=O)OCc1cn([C@@H]2O[C@H](CO)[C@@H](O)[C@H](O)[C@H]2O)nn1`, the concentration for half-maximal inhibition (IC50) in test [1] came out at 121 µM.

With `CO[C@@H]1/C=C(\C)C[C@H](/C=C/C#C[C@H]2C[C@@H]2Cl)OC(=O)[C@@H](C)[C@]2(O)C[C@H](O[C@@H]3O[C@@H](C)[C@H](O)[C@@](C)(O)[C@H]3OC)[C@@H](C)[C@@H](O2)[C@@H]1C`, the 50% inhibitory concentration (IC50) came to 11.3 µg/mL (≈ 17.6 µM) in test [2], 15.3 µg/mL (≈ 23.8 µM) in [3] and 20.2 µM in test [4].

In test [5], `CCCCCCCCCCCCCCCCn1cc(CO[C@@H]2O[C@H](CO)[C@@H](O)[C@H](O)[C@H]2O)nn1` showed a half-inhibitory concentration (IC50) of 24 µM.

`CCCCCCCCN[C@@H]1[C@H](O)[C@@H](O)[C@@H](O)[C@H]2COC(=O)N21`: the half-maximal inhibitory concentration (IC50) in [6], in [7], in [8], in test [9], in test [10] and in [11] was 30 µM in each case.

With `C[C@@H](N)[C@H](O)CCCCCCCC(=O)CCCCCCCCCCCCCC[C@H](O)[C@H](N)CO[C@@H]1O[C@H](CO)[C@@H](O)[C@H](O)[C@H]1O`, the half-maximal inhibitory concentration (IC50) in [12], in test [13], in test [14], in [15], in test [16] and in [17] was 3 µg/mL (≈ 4.62 µM) throughout. This compound registered a concentration for half-maximal inhibition (IC50) in [18] of 3 µg/mL (≈ 4.62 µM).

Turning to `CCCCCCCC[C@@H]1[C@H](O)[C@@H](O)[C@H](O)[C@H]2COC(=O)N12`, in test [19], the half-maximal inhibitory concentration (IC50) was 22 µM.

Take `C[C@@H](N)[C@H](O)CCCCCCCCCCCCCCC(=O)CCCCCCC[C@@H](O)[C@@H](C)N`: the Activity in test [20] worked out at 93%.

With `C[C@@H](N)[C@H](O)CCCCCCCC(=O)CCCCCCCCCCCCCC[C@H](O[C@@H]1O[C@H](CO)[C@H](O)[C@H](O)[C@H]1O)[C@@H](C)N`, the IC50 in test [21] and in test [22] was 1.7 µM in each case.
